From patent publication US4755526A, “Method of inhibiting aromatase” (Eli Lilly and Company, priority 1984, dated 1988)
Where a name gives a salt, the structure may show the parent alone. Each block holds one compound with its values, some of them ahead of it.

Key:
estrogen synthesis = assay: Estrogen synthesis inhibition in rats (uterine weight and ovarian steroid concentrations); type: in vivo, female Wistar rats; conditions: for Mean Steroid Concentration, estradiol / Mean Steroid Concentration, estriol / Mean Steroid Concentration, estrone: ovaries; for Mean Uterine Weight: testosterone propionate-treated rats
Protocol: Test compounds were administered for seven days either daily by gavage in corn oil or as a component of the diet. Control animals received either corn oil or diet without the test compound. Beginning on the fourth day of the test, all animals treated with the test compound and one half of the control animals were given a subcutaneous injection of 1.0 mg of testosterone propionate in corn oil. The remaining control animals received only an equivalent volume of corn oil.
After two hours, the animals were killed by decapitation. Uteri were isolated, trimmed of extraneous connective tissue, and weighed. […] In the control animals treated with testosterone propionate, estrogens produced by aromatization stimulated the uterus resulting in an increase in weight.
The ovarian steroids were extracted with 1.5 ml of 9:1 (v/v) toluene/ethanol to which had been added 25 to 100 mcg each of unlabelled estradiol, estriol, and estrone, and approximately 1000 dpm of [^14 C]-estradiol. The samples were vortexed, centrifuged at 500×g for 10 minutes, and the organic phase was transferred to a conical vial. Two additional extractions were performed on the residue in the same way. The pooled organic extracts were evaporated for subsequent thin-layer chromatography.
Ovarian proteins were precipitated by the addition of 5.0 ml of ethanol to the remaining aqueous phase. After an overnight incubation at 4° C., the samples were centrifuged at 1500×g for 10 minutes. The supernatant was discarded, and the pellet was dissolved in 0.3N potassium hydroxide.
The organic residue from each above extraction was redissolved in 9:1 (v/v) dichloromethane/methanol. The solution of each sample was applied to separate silica gel thin layer chromatography plates which contained a fluorescent indicator. The plates were developed in the first dimension with 160:38:1.5:0.5 (v/v/v/v) dichloromethane/ethyl acetate/methanol/acetic acid to within 3 cm of the top of the plate. After air-drying, the plate was developed in the second dimension with 180:19:1 (v/v/v) dichloromethane/methanol/ammonium hydroxide. The plate was air-dried and viewed under 254 nm UV light.
The visible spots were marked and the plates were sprayed with primulin (0.001% in 4:1 v/v acetone/water) according to the method of Wright, J. Chromatography, 59, 220 (1971) which allowed for the identification of additional steroids under 365 nm UV light. The spots were scraped from the plate using a glass wool plugged Pasteur pipet attached to a vacuum line. The steroids were eluted directly into scintillation vials by the addition of 0.2 ml of dichloromethane followed by two washes each of 2.0 ml of methanol. The organic solvent was evaporated and 10.0 ml of scintillation fluid (Beckman Ready Solv-NA) was added to the vials. Samples were analyzed by liquid scintillation spectrometry. Corrections were made based on the recoveries of the [^14 C]-steroid. Steroid concentrations are expressed as femtomoles per milligram protein.

aromatase = target: T1, aromatase (Rattus norvegicus, UniProt P22443); assay: Aromatase inhibition in the rat ovarian microsome assay; type: biochemical; conditions: EC50: concentration required to achieve 50% inhibition of aromatase activity, substrate (androstenedione) concentration 0.1 μM
T1 construct: ovarian microsomes are obtained from rats treated with pregnant mares serum gonadotropin; from tissue; host or cells: ovarian microsomes of rats treated with pregnant mares serum gonadotropin
T1 sequence (P22443 1-508): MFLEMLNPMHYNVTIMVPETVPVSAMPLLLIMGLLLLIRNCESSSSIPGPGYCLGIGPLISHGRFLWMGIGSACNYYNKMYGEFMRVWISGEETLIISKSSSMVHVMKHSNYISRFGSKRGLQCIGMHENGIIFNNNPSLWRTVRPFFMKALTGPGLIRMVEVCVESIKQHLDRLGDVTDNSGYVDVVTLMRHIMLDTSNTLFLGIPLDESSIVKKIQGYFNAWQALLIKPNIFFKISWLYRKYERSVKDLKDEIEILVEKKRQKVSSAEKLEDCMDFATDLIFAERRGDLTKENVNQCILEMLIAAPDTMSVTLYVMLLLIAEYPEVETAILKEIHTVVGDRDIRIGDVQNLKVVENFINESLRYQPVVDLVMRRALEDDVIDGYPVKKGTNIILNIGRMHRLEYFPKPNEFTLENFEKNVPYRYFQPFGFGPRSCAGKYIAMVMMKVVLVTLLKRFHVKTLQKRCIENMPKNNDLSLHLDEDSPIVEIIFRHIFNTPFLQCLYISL
Protocol: In this test system, ovarian microsomes are obtained from rats treated with pregnant mares serum gonadotropin. Test compounds are added to reaction vials containing 0.1 μM 4-androstene-3,17-dione, 100,000 dpm 1,2[^3 H]-androstenedione, the microsomes and a NADPH generating system. The concentrations of the inhibitors tested ranged between 0.005 and 10 μM.

[1] = 30 ppm in feed (approximately 3 mg/kg/day)
[2] = 300 ppm in feed (approximately 30 mg/kg/day)
[3] = 200 ppm in feed (approximately 20 mg/kg/day)

Structure (SMILES): Cl.Clc1cccc(Cn2ccnc2)c1Cl [1-(2,3-dichlorobenzyl)imidazole hydrochloride]
Mean Steroid Concentration, estradiol (estrogen synthesis; [1]): 2.09 femtomoles per milligram of protein
Mean Steroid Concentration, estriol (estrogen synthesis; [1]): 0.78 femtomoles per milligram of protein
Mean Steroid Concentration, estrone (estrogen synthesis; [1]): 0.34 femtomoles per milligram of protein
Mean Uterine Weight (estrogen synthesis; [1]): 139.4 mg
Mean Steroid Concentration, estradiol (estrogen synthesis; [2]): 1.12 femtomoles per milligram of protein
Mean Steroid Concentration, estriol (estrogen synthesis; [2]): 0.41 femtomoles per milligram of protein
Mean Steroid Concentration, estrone (estrogen synthesis; [2]): 0.23 femtomoles per milligram of protein
Mean Uterine Weight (estrogen synthesis; [2]): 127.3 mg
EC50 (aromatase): 87 nM

Structure (SMILES): Clc1ccc(COc2ccccc2Cn2ccnc2)c(Cl)c1 [1-[(2-[2,4-dichlorobenzyloxy]phenyl)methyl]-1H--imidazole nitrate]
Mean Steroid Concentration, estradiol (estrogen synthesis; [1]): 1.16 femtomoles per milligram of protein
Mean Steroid Concentration, estriol (estrogen synthesis; [1]): 0.33 femtomoles per milligram of protein
Mean Steroid Concentration, estrone (estrogen synthesis; [1]): 0.31 femtomoles per milligram of protein
Mean Uterine Weight (estrogen synthesis; [1]): 173.5 mg
Mean Steroid Concentration, estradiol (estrogen synthesis; [2]): 1.97 femtomoles per milligram of protein
Mean Steroid Concentration, estriol (estrogen synthesis; [2]): 0.34 femtomoles per milligram of protein
Mean Steroid Concentration, estrone (estrogen synthesis; [2]): 0.30 femtomoles per milligram of protein
Mean Uterine Weight (estrogen synthesis; [2]): 151.4 mg
EC50 (aromatase): 68 nM

Structure (SMILES): O=[N+]([O-])c1ccc(Cn2ccnc2)cc1 [1-[(4-nitrophenyl)methyl]-1H--imidazole hydrochloride]
Mean Steroid Concentration, estradiol (estrogen synthesis; [1]): 1.16 femtomoles per milligram of protein
Mean Steroid Concentration, estriol (estrogen synthesis; [1]): 0.80 femtomoles per milligram of protein
Mean Steroid Concentration, estrone (estrogen synthesis; [1]): 0.88 femtomoles per milligram of protein
Mean Uterine Weight (estrogen synthesis; [1]): 185.3 mg
Mean Steroid Concentration, estradiol (estrogen synthesis; [2]): 0.79 femtomoles per milligram of protein
Mean Steroid Concentration, estriol (estrogen synthesis; [2]): 1.11 femtomoles per milligram of protein
Mean Steroid Concentration, estrone (estrogen synthesis; [2]): 1.19 femtomoles per milligram of protein
Mean Uterine Weight (estrogen synthesis; [2]): 147.2 mg
EC50 (aromatase): 29 nM

Structure (SMILES): CCOc1ccccc1C(C1CCCCC1)n1ccnc1 (stereo not shown) [1-[cyclohexyl(2-ethoxyphenyl)methyl]-1H--imidazole hydrochloride]
Mean Steroid Concentration, estradiol (estrogen synthesis; [1]): 1.30 femtomoles per milligram of protein
Mean Steroid Concentration, estriol (estrogen synthesis; [1]): 0.36 femtomoles per milligram of protein
Mean Steroid Concentration, estrone (estrogen synthesis; [1]): 0.24 femtomoles per milligram of protein
Mean Uterine Weight (estrogen synthesis; [1]): 149.0 mg
Mean Steroid Concentration, estradiol (estrogen synthesis; [2]): 1.11 femtomoles per milligram of protein
Mean Steroid Concentration, estriol (estrogen synthesis; [2]): 0.28 femtomoles per milligram of protein
Mean Steroid Concentration, estrone (estrogen synthesis; [2]): 0.20 femtomoles per milligram of protein
Mean Uterine Weight (estrogen synthesis; [2]): 96.6 mg
EC50 (aromatase): 22 nM

Structure (SMILES): Clc1ccc(C(c2ccc(Cl)cc2)(c2ccc(Cl)cc2)n2cncn2)cc1 [1-[tris(4-chlorophenyl)methyl]-1H--1,2,4-triazole]
EC50 (aromatase): 420 nM

Structure (SMILES): c1ccc(Cn2ccnc2)cc1 [1-benzylimidazole]
EC50 (aromatase): 2800 nM

Structure (SMILES): Clc1ccc(C(c2ccc(Cl)cc2)(c2ccc(Cl)cc2)n2ccnc2)cc1 [1-tris(4-chlorophenyl)methyl-1H--imidazole]
EC50 (aromatase): 270 nM

Structure (SMILES): Cc1nccn1C(c1ccc(Cl)cc1)(c1ccc(Cl)cc1)c1ccc(Cl)cc1 [1-tris(4-chlorophenyl)methyl-2-methyl-1H--imidazole]
EC50 (aromatase): 270 nM

Structure (SMILES): c1ccc(C(c2ccccc2)(c2ccccc2)n2cncn2)cc1 [1-trityl-1H--1,2,4-triazole]
EC50 (aromatase): 310 nM

Structure (SMILES): c1ccc(C(c2ccccc2)(c2ccccc2)n2ccnc2)cc1 [1-tritylimidazole]
Mean Steroid Concentration, estradiol (estrogen synthesis; [1]): 0.75 femtomoles per milligram of protein
Mean Steroid Concentration, estriol (estrogen synthesis; [1]): 0.44 femtomoles per milligram of protein
Mean Steroid Concentration, estrone (estrogen synthesis; [1]): 0.23 femtomoles per milligram of protein
Mean Uterine Weight (estrogen synthesis; [1]): 135.0 mg
Mean Steroid Concentration, estradiol (estrogen synthesis; [2]): 0.64 femtomoles per milligram of protein
Mean Steroid Concentration, estriol (estrogen synthesis; [2]): 0.28 femtomoles per milligram of protein
Mean Steroid Concentration, estrone (estrogen synthesis; [2]): 0.21 femtomoles per milligram of protein
Mean Uterine Weight (estrogen synthesis; [2]): 122.6 mg
EC50 (aromatase): 32 nM

Structure (SMILES): CSc1ccc(C(c2ccccc2)(c2cccnc2)n2cncn2)cc1 (stereo not shown) [3-([4-(methylthio)phenyl]phenyl-1H--1,2,4-triazol-1-ylmethyl)pyridine]
EC50 (aromatase): 195 nM

Structure (SMILES): Clc1ccc(Cl)c(C(c2cccnc2)(c2cc(Cl)ccc2Cl)n2ccnc2)c1 [3-(bis[2,5-dichlorophenyl]-1H--imidazol-1-ylmethyl)pyridine]
EC50 (aromatase): 210 nM

Structure (SMILES): CC(C)(C)C(c1ccc(Cl)cc1)(c1cccnc1)n1ccnc1 (stereo not drawn) [3-(α-tert-butyl-4-chloro-α-imidazol-1-ylbenzyl)pyridine]
EC50 (aromatase): 100 nM

Structure (SMILES): FC(F)(F)c1cccc(C(c2ccc(Cl)cc2)(c2cccnc2)n2cncn2)c1 (stereo not shown) [3-[(4-chlorophenyl)-1H--1,2,4-triazol-1-yl-(3-trifluoromethylphenyl)methyl]pyridine]
Mean Steroid Concentration, estradiol (estrogen synthesis; [3]): 0.88 femtomoles per milligram of protein
Mean Steroid Concentration, estriol (estrogen synthesis; [3]): 0.06 femtomoles per milligram of protein
Mean Steroid Concentration, estrone (estrogen synthesis; [3]): 0.01 femtomoles per milligram of protein
Mean Uterine Weight (estrogen synthesis; [3]): 159.2 mg
EC50 (aromatase): 98 nM

Structure (SMILES): FC(F)(F)c1cccc(C(c2ccc(Cl)cc2)(c2cccnc2)n2ccnc2)c1 (stereo not shown) [3-[(4-chlorophenyl)-1H--imidazol-1-yl-(3-trifluoromethylphenyl)methyl]pyridine]
Mean Steroid Concentration, estradiol (estrogen synthesis; [3]): 0.70 femtomoles per milligram of protein
Mean Steroid Concentration, estriol (estrogen synthesis; [3]): 0.27 femtomoles per milligram of protein
Mean Steroid Concentration, estrone (estrogen synthesis; [3]): 0.06 femtomoles per milligram of protein
Mean Uterine Weight (estrogen synthesis; [3]): 122.6 mg
EC50 (aromatase): < 50 nM

Structure (SMILES): Clc1ccccc1C(c1cccnc1)(c1ccccc1Cl)n1cncn1 [3-[bis(2-chlorophenyl)-1H--1,2,4-triazol-1-ylmethyl]pyridine]
EC50 (aromatase): 720 nM

Structure (SMILES): Cc1nccn1C(c1ccc(Cl)cc1)(c1ccc(Cl)cc1)c1cccnc1 [3-[bis(4-chlorophenyl)(2-methyl-1H--imidazol-1-yl)methyl]pyridine]
Mean Steroid Concentration, estradiol (estrogen synthesis; [3]): 0.89 femtomoles per milligram of protein
Mean Steroid Concentration, estriol (estrogen synthesis; [3]): 0.38 femtomoles per milligram of protein
Mean Steroid Concentration, estrone (estrogen synthesis; [3]): 0.06 femtomoles per milligram of protein
Mean Uterine Weight (estrogen synthesis; [3]): 125.8 mg
EC50 (aromatase): < 50 nM

Structure (SMILES): Fc1ccc(C(c2ccc(Cl)cc2)n2cnnc2)cc1 (stereo not shown) [4-[(4-chlorophenyl)(4-fluorophenyl)methyl]-4H--1,2,4-triazole]
EC50 (aromatase): 80 nM

Structure (SMILES): FC(F)(F)c1ccc(C(c2ccc(Cl)cc2)(c2cncnc2)n2ccnc2)cc1 (stereo not shown) [5-[(4-chlorophenyl)-1H--imidazol-1-yl(4-trifluoromethylphenyl)methyl]pyrimidine]
EC50 (aromatase): 30 nM

Continued, in another order:

EC50 (aromatase): 18 nM
Structure (SMILES): C#CC(c1ccccc1)(c1ccccc1)n1ccnc1 [1-(1,1-diphenyl-2-propynyl)-1H--imidazole]
Mean Steroid Concentration, estradiol (estrogen synthesis; [1]): 1.05 femtomoles per milligram of protein
Mean Steroid Concentration, estriol (estrogen synthesis; [1]): 1.06 femtomoles per milligram of protein
Mean Steroid Concentration, estrone (estrogen synthesis; [1]): 0.00 femtomoles per milligram of protein
Mean Uterine Weight (estrogen synthesis; [1]): 212.3 mg
Mean Steroid Concentration, estradiol (estrogen synthesis; [2]): 1.01 femtomoles per milligram of protein
Mean Steroid Concentration, estriol (estrogen synthesis; [2]): 0.60 femtomoles per milligram of protein
Mean Steroid Concentration, estrone (estrogen synthesis; [2]): 0.00 femtomoles per milligram of protein
Mean Uterine Weight (estrogen synthesis; [2]): 137.6 mg

EC50 (aromatase): 64 nM
Structure (SMILES): COc1ccc(C(c2ccccc2)(c2ccc(OC)cc2)n2ccnc2)cc1 [1-[α,α-bis(4-methoxyphenyl)benzyl]imidazole]

EC50 (aromatase): 40 nM
Structure (SMILES): Fc1ccc(C(c2ccccc2)(c2ccc(F)cc2)n2ccnc2)cc1 [1-bis(4-fluorophenyl)phenylmethyl]-1H--imidazole]

EC50 (aromatase): > 5000 nM
Structure (SMILES): c1ccc(C(c2ccccc2)n2cncn2)cc1 [1-diphenylmethyl-1H--1,2,4-triazole]

EC50 (aromatase): < 50 nM
Structure (SMILES): c1ccc(C(c2ccccc2)(c2ccccn2)n2ccnc2)cc1 [2-(1H--imidazol-1-yldiphenylmethyl)pyridine]

EC50 (aromatase): 1300 nM
Structure (SMILES): Cc1nccn1C(c1ccccc1)(c1ccccc1)c1ccccc1 [2-methyl-1-tritylimidazole]

EC50 (aromatase): < 50 nM
Structure (SMILES): CSc1ccc(C(c2ccccc2)(c2cccnc2)n2ccnc2)cc1 (stereo not shown) [3-(1H--imidazol-1-yl-[4-(methylthio)phenyl]phenylmethyl)pyridine]

EC50 (aromatase): 86 nM
Structure (SMILES): Clc1ccc(C(c2cccnc2)(c2ccccc2Cl)n2ccnc2)cc1 (stereo not shown) [3-[(2-chlorophenyl)(4-chlorophenyl)-1H--imidazol-1-ylmethyl]pyridine]

EC50 (aromatase): 305 nM
Structure (SMILES): Clc1ccccc1C(c1cccnc1)(c1ccccc1Cl)n1ccnc1 [3-[bis(2-chlorophenyl)-1H--imidazol-1-ylmethyl]pyridine]

EC50 (aromatase): 160 nM
Structure (SMILES): c1ccc(C(c2ccccc2)(c2ccncc2)n2cncn2)cc1 [4-(diphenyl-1H--1,2,4-triazole-1-ylmethyl)pyridine]

EC50 (aromatase): 120 nM
Structure (SMILES): Cc1nccn1C(c1ccccc1)(c1ccccc1)c1ccncc1 [4-[(2-methyl-1-imidazol-1-yl)diphenylmethyl]pyridine]

EC50 (aromatase): 825 nM
Structure (SMILES): c1ccc(C(c2ccccc2)(c2cncnc2)n2cncn2)cc1 [5-(diphenyl-1H--1,2,4-triazol-1-ylmethyl)pyrimidine]
